Experimental data taken from US5229123A, “Antifungal agents” (Hoffmann-La Roche Inc., priority 1991, dated 1993).
Like-named read-outs stand apart in the source and are kept apart here.

What was measured:
[1] = target: T1, Chs 1 (Saccharomyces cerevisiae, UniProt P08004); experiment: Inhibitory activity against Chs 1 (chitin formation from [14C]-UDP-N-acetylglucosamine in permeabilized overproducer cells); type: biochemical
T1 sequence (P08004 1-1131): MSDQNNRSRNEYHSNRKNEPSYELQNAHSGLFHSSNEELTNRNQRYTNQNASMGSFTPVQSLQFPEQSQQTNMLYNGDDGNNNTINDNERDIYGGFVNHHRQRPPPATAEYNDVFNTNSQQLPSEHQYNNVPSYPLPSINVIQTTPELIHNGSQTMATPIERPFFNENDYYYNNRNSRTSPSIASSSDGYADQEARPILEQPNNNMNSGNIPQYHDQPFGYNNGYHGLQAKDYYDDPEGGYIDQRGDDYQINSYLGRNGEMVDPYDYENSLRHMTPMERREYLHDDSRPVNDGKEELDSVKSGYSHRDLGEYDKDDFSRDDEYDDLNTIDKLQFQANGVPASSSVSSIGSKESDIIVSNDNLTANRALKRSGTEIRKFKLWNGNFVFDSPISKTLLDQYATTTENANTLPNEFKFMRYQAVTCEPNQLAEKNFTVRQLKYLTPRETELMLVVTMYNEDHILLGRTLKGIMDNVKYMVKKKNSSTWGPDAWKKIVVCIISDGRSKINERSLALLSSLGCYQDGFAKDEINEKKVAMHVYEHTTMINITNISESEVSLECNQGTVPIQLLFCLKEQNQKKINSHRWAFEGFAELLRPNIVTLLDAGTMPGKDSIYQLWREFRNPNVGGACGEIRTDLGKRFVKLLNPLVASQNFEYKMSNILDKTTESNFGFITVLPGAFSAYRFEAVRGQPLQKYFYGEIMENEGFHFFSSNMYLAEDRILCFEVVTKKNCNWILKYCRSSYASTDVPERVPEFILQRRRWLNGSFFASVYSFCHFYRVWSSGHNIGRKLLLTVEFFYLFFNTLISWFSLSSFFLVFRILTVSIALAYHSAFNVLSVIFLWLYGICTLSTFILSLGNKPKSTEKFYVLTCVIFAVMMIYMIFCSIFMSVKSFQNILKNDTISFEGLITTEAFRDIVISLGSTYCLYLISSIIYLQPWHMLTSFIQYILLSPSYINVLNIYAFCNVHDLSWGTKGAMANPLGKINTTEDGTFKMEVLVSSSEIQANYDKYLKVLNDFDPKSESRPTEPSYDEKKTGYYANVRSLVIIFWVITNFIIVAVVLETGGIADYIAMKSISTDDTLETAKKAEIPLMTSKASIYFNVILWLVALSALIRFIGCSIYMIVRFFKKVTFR
Method: (§1) Inhibitory activity of Xanthofulvin against Chs 1 and Chs 2 from Saccharomyces cerevisiae was measured respectively.
(§2) The overproducer employed for Chs 1 was Saccharomyces cerevisiae (ura3) harbouring plasmid (CHSl, URA3). The cells were permeabilized with 0.5% digitonin for 15 min at 30° C., followed by treatment with trypsin at the final concentration of 100 μg/ml for 15 min at 30° C. After addition of trypsin inhibitor from soybean, 50 μl of 2.5×10^7 cells/ml was incubated for 1 hr at 30° C. with 40 μl of assay solution containing 50 mM MES pH 6.5, 5 mM Mg(OAc)2, 32 mM N-acetylglucosamine and 0.1 mM [^14 C]-UDP-N-acetylglucosamine, and 10 μl of sample solution. Reaction was terminated with addition of TCA and cells are collected on the filter and washed with 70% aqueous ethanol containing 0.3M acetic acid. Radioactivity of cells is counted with a liquid scientillation counter. Amount of chitin formed was determined on the basis of radioactivity incorporated into the cells (S. J. Silverman, A. Sburlati, M. J. Slater and E. Cabib. Proc. Natl. Acad. Sci. USA, 85, 4735-4739 (1988)).

[2] = target: T2, Chs 2 (Saccharomyces cerevisiae, UniProt P14180); experiment: Inhibitory activity against Chs 2 (chitin formation from [14C]-UDP-N-acetylglucosamine in permeabilized overproducer cells); type: biochemical
T2 construct: digitonin-permeabilized, trypsin-treated cells
Method: as §1, §2
Overproducer for Chs 2 was a Saccharomyces cerevisiae strain of disrupted Chs 1 gene (chs1:: URA3, leu2 ) with plasmid (CHS2, LEU2). Assay method was the same as the one for Chs 1 described above except for assay solution. Assay solution for Chs 2 contained 30 mM Tris (pH 7.5), 2.5 mM Co(OAc)2, 32 mM N-acetylglucosamine and 0.1 mM [^14 C]-UDP-N-acetylglucosamine (See: Silverman et al. supra).

[3] = Solubility (physico-chemical properties); type: physicochemical
Source text: The physico-chemical properties of Xanthofulvin obtained as described in the Example given hereinbelow are as follows: […]

[4] = Acute toxicity; details: in vivo
[5] = target: chitin synthase 1 (Chs 1) (Saccharomyces cerevisiae, UniProt P08004); details: literature, E. Cabib 1991; cited from earlier work

T2 sequence (P14180 whole entry): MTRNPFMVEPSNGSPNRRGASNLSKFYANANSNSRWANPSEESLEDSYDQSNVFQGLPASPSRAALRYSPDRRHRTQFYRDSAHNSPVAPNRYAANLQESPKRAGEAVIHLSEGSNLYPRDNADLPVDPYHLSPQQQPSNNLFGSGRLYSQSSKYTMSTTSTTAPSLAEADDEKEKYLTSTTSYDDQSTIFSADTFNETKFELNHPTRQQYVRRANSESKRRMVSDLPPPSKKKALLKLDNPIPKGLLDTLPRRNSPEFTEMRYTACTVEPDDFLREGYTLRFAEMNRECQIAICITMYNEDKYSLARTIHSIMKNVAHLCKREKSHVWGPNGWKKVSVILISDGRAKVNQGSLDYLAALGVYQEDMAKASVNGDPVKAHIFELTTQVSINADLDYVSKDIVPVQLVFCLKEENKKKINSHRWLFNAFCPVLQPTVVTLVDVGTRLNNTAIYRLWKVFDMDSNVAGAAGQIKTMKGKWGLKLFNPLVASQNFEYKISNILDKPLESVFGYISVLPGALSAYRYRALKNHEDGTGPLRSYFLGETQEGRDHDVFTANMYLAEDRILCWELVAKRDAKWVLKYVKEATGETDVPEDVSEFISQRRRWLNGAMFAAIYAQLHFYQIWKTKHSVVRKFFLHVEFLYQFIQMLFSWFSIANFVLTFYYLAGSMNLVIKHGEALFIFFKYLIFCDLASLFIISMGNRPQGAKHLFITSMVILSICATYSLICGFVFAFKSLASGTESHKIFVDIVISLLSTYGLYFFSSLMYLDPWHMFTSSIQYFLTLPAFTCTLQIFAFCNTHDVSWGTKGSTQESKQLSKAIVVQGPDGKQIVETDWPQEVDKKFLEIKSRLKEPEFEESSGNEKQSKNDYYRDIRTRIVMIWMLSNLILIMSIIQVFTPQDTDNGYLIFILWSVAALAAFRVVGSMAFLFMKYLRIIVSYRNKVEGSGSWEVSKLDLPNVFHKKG

## CC(=O)c1c(C)c(/C(O)=C2\COc3cc(O)c(O)c(C(=O)O)c3C2=O)cc2c(=O)c3c(C(=O)O)c(O)c(O)cc3oc12 [Xanthofulvin]
[1]; Chs 1 overproducer, MES pH 6.5, Mg(OAc)2, 1 hr at 30° C., read-out: IC50 Chs 1
  IC50: > 200 µM
[2]; Chs 2 overproducer, Tris pH 7.5, Co(OAc)2, read-out: IC50 Chs 2
  IC50: 2.2 µM
[2]; summary of Table 1
  Chs 2 inhibiting activity (in words): high Chs 2 inhibiting activity
[3]; in DMSO
  Solubility: Soluble
[3]; in H2O
  Solubility: Slightly soluble
[3]; in MeOH
  Solubility: Soluble
[3]; in n-hexane
  Solubility: Insoluble
[4]
  Acute toxicity: not observed

## C[C@@H]([C@H](N)C(=O)N[C@H](C(=O)O)[C@H]1OC(n2cc(C=O)nc2O)[C@H](O)[C@@H]1O)[C@H](O)c1ccc(O)cn1 (stereo partly drawn) [nikkomycin X]
[5]
  Inhibition of chitin synthase 1 versus Chs 2 (in words): inhibit chitin synthase 1 (Chs 1) rather than Chs 2

## NC(=O)OC[C@H](O)[C@@H](O)[C@H](N)C(=O)N[C@H](C(=O)O)[C@H]1O[C@@H](n2cc(C(=O)O)c(=O)[nH]c2=O)[C@H](O)[C@@H]1O [polyoxin D, reference compound]
[1]
  IC50: 0.26 µM
[2]
  IC50: 10.3 µM
[5]
  Inhibition of chitin synthase 1 versus Chs 2 (in words): inhibit chitin synthase 1 (Chs 1) rather than Chs 2
